Laboratory results taken from patent US7033593B2, “Immunogen comprising an HIV envelope protein, a ligand and H2 peptide” (priority 2000, dated 2006).

What was measured:
BaL gp120 = test: BIACORE capture assay: peptide binding to BaL gp120; design: species or system HIV-1 BaL; details: CCR5-utilizing isolate
Experimental: Rectangular bars represent the surface of the sensor chip on which sCD4 or mAbs A32 or T8 were covalently immobilized. Soluble gp120 proteins were first captured on each of these surfaces and then DP178 or sDP178 peptides were injected and their binding interactions were monitored. […] Based on their molecular size (1:27), 2000 RU of immobilized gp120 would bind 74 RU of DP178 peptide. […] Arrows point to start of injection of gp120 and DP178. […] In FIG. 27C, specific binding signal (solid) is shown after subtraction of non-specific signal (broken line). […] 50 μg/ml of DP178 peptide was flowed at 30 μl/min over each of these surfaces after 2000 RU of 89.6 gp120 was bound (FIG. 27D). In FIG. 27E, these same surfaces were also used to monitor binding of scrDP178 (50 μg/ml). […] (FIG. 27F) Binding of DP178 and DP107 peptides to A32-gp120 complex. […] Data are a representative experiment of 3 performed. […] 50 μg/ml of DP178 peptide was flowed at 30 μl/min over each of these surfaces after RU of BaL gp120 was bound (FIG. 27G). These same surfaces were also used to monitor binding of scrDP178 (50 μg/ml) (FIG. 27H).
Surface Plasmon Resonance Biosensor Measurements.

[1] = test system: T8-gp140 (HIV 89.6 gp140); details: SPR
Experimental: FIG. 14A. […] FIGS. 14B and 14C. […] After stabilization of gp140 capture, either the 19b (anti-gp120 V3) or 2F5 (anti-gp41) antibodies (300 μg/ml) were injected to assess the relative amounts of gp120 and gp41 on both surfaces. FIGS. 14D–14F.
A blank chip served as an in-line reference surface for subtraction of non-specific binding and bulk responses.
Surface Plasmon Resonance Biosensor Measurements. SPR biosensor measurements were determined on a BIACORE 3000 (BIACORE Inc., Uppsala, Sweden) instrument. […] A blank in-line reference surface (activated and de-activated for amine coupling) was used to subtract non-specific or bulk responses. Binding of proteins and peptides (biotinylated or free DP178, T649Q26L, DP178-scrambled) was monitored in real-time at 25° C. with a continuous flow of PBS (150 mM NaCl, 0.005% surfactant p20), pH 7.4 at 10–30 μl/min. Analyte (proteins and peptides) were removed and the sensor surfaces were regenerated following each cycle of binding by single or duplicate 5–10 μl pulses of regeneration solution (10 mM glycine-HCl, pH 2.5 or 10 mM NaOH).

89.6 gp120 = 89.6 gp120 (Human immunodeficiency virus type 1 group M subtype B, UniProt Q73372); assay type: binding, HIV-1 89.6
Excerpt: Biotinylated DP178 (FIG. 28A), scrDP178 (FIG. 28B) and scrDP107 (not shown) were attached to a SA-sensor chip through biotin-streptavidin interactions. 200–300 RU of each peptide was attached to individual flow cells of the SA chip. The scrDP107 surface was used as in-line reference subtraction of non-specific and bulk effect. All data shown here were derived after subtraction of signals from this reference surface. […] Data are a representative experiment of 3 performed.
The scrDP107 surface was used as a reference surface for subtracting bulk and non-specific binding. […] Soluble gp120 proteins, mabs or gp120 proteins pre-incubated with mabs were then injected at 20 μl/min for 2–3 min over each of the peptide-SA surface. Binding data was acquired following in-line reference subtraction of binding from the scrDP107 (HR-1) surface.
In these experiments (the “SA-chip assay”), biotinylated HR-2 peptides DP178 and scrDP178 were immobilized on adjacent flow cells of a streptavidin sensor chip (SA chip). […] The non-specific and bulk effect was measured over scrDP107 surface and this surface was used for automated in-line reference subtraction.

[2] = target: T8-gp120 (HIV 89.6 gp120) (Human immunodeficiency virus type 1 group M subtype B, UniProt Q73372); assay type: binding; details: SPR
[3] = A32-induced gp120, two-component dissociation

Sequence of 89.6 gp120 (Q73372 32-508): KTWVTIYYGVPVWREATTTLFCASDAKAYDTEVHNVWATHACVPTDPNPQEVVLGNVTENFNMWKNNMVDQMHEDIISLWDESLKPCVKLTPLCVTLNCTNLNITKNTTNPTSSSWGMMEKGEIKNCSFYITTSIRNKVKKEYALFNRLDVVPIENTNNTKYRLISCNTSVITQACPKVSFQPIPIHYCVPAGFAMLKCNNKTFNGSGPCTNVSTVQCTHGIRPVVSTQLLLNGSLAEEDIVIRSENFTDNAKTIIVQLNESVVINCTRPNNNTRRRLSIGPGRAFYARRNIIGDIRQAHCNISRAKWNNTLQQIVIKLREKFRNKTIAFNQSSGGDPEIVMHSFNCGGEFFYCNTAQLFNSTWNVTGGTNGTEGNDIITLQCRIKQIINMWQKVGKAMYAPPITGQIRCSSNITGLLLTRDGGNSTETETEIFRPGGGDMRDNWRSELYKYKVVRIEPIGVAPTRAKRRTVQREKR
Sequence of T8-gp120 (HIV 89.6 gp120) (Q73372 32-508): as above

For enfuvirtide, the “binding to BaL gp120 complexed with A32, CD4 or T8 (in words)” value (BaL gp120) was “neither DP178 nor scrDP178 bound”, the “binding to T8-gp140 surface (in words)” value [1] was “near background binding” and the “binding higher than expected due to mass effect only” value (89.6 gp120; +A32) was 3 fold. For the same substance, the faster off-rate (89.6 gp120; [3]) was 0.020 s⁻¹, the slower off-rate (89.6 gp120; [3]) was 0.0016 s⁻¹ and the “binding signal of A32-gp120 over peptide surface” value (89.6 gp120; gp120 pre-incubated with A32 (+A32)) was ~400 RU. The “binding to gp120 on T8 mab surface (in words)” value [2] was “neither HR-2 peptide bound”.
